Experimental data taken from US20110136666A1, “CHEMICAL COMPOUNDS” (SYNGENTA CROP PROTECTION, INC., priority 2008, published 2011).

What was measured:
[1] = system: Echinochloa crus-galli (ECHCG); test: Pre-emergence biological efficacy, glasshouse pot test; assay type: in vivo; details: 312 h, 1000 g/ha, after 13 days, 100=total damage, 0=no damage, read-out: Percentage damage caused to weed species ECHCG
Outline: (§1)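 Pots sown with weed seeds, sprayed 1 day after sowing with test compound in acetone/water (50:50) plus 0.5% Tween 20 at 250 or 1000 g/ha. Plants grown in glasshouse at 24/16° C day/night, 14 h light, 65% humidity, watered twice daily. Damage scored visually after 13 days (0 = none, 100 = total).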

[2] = system: Amaranthus retroflexus (AMARE); test: as above; assay type: in vivo; details: 312 h, 1000 g/ha, after 13 days, 100=total damage, 0=no damage, read-out: Percentage damage caused to weed species AMARE
Outline: as §1

[3] = system: Ipomea hederaceae (IPOHE); test: as above; assay type: in vivo; details: Ipomoea hederacea, 312 h, 1000 g/ha, after 13 days, 100=total damage, 0=no damage, read-out: Percentage damage caused to weed species IPOHE
Outline: as §1

[4] = system: Solanum nigrum (SOLNI); test: as above; assay type: in vivo; details: 312 h, 1000 g/ha, after 13 days, 100=total damage, 0=no damage, read-out: Percentage damage caused to weed species SOLNI
Outline: as §1

[5] = system: Alopecurus myosuroides (ALOMY); test: as above; assay type: in vivo; details: 312 h, 1000 g/ha, after 13 days, 100=total damage, 0=no damage, read-out: Percentage damage caused to weed species ALOMY
Outline: as §1

[6] = system: Setaria faberi (SETFA); test: as above; assay type: in vivo; details: 312 h, 1000 g/ha, after 13 days, 100=total damage, 0=no damage, read-out: Percentage damage caused to weed species SETFA
Outline: as §1

[7] = system: Echinochloa crus-galli (ECHCG); test: Post-emergence biological efficacy, glasshouse pot test; assay type: in vivo; details: 312 h, 1000 g/ha, after 13 days, 100=total damage, 0=no damage, read-out: Percentage damage caused to weed species ECHCG
Outline: (§2)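 Species sown in soil and grown 8 days in glasshouse (24/16 °C day/night, 14 h light, 65% humidity), then sprayed with compound in acetone/water (50:50) with 0.5% Tween 20 at 250 or 1000 g/ha. Damage scored visually after 13 days (0 = none, 100 = total).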

[8] = system: Amaranthus retroflexus (AMARE); test: as above; assay type: in vivo; details: 312 h, 1000 g/ha, after 13 days, 100=total damage, 0=no damage, read-out: Percentage damage caused to weed species AMARE
Outline: as §2

[9] = system: Ipomea hederaceae (IPOHE); test: as above; assay type: in vivo; details: Ipomoea hederacea, 312 h, 1000 g/ha, after 13 days, 100=total damage, 0=no damage, read-out: Percentage damage caused to weed species IPONE
Outline: as §2

[10] = system: Solanum nigrum (SOLNI); test: as above; assay type: in vivo; details: 312 h, 1000 g/ha, after 13 days, 100=total damage, 0=no damage, read-out: Percentage damage caused to weed species SOLNI
Outline: as §2

[11] = system: Alopecurus myosuroides (ALOMY); test: as above; assay type: in vivo; details: 312 h, 1000 g/ha, after 13 days, 100=total damage, 0=no damage, read-out: Percentage damage caused to weed species ALOMY
Outline: as §2

[12] = system: Setaria faberi (SETFA); test: as above; assay type: in vivo; details: 312 h, 1000 g/ha, after 13 days, 100=total damage, 0=no damage, read-out: Percentage damage caused to weed species SETFA
Outline: as §2

melting point	SMILES	pest or weed control at 1000 g/ha [1] [%]	pest or weed control at 1000 g/ha [2] [%]	pest or weed control at 1000 g/ha [3] [%]	pest or weed control at 1000 g/ha [4] [%]	pest or weed control at 1000 g/ha [5] [%]	pest or weed control at 1000 g/ha [6] [%]	pest or weed control at 1000 g/ha [7] [%]	pest or weed control at 1000 g/ha [8] [%]	pest or weed control at 1000 g/ha [9] [%]	pest or weed control at 1000 g/ha [10] [%]	pest or weed control at 1000 g/ha [11] [%]	pest or weed control at 1000 g/ha [12] [%]
210 to 213 °C	COC(=O)c1nc(-c2ccc(C#N)nc2)nc(N)c1Cl [Compound 2-158, 4-amino-5-chloro-2-(2-cyanopyridin-5-yl)-6-methoxycarbonylpyrimidine]	0	0	0	0	0	0	0	0	20	20	0	0
176 to 180 °C (dec.)	CCOC(=O)c1nc(-c2ccccn2)nc(N)c1Cl [Compound 3-149, 4-amino-5-chloro-6-ethoxycarbonyl-2-pyridin-2-ylpyrimidine]	0	0	0	0	0	0	0	0	0	0	0	0
194 to 195 °C	C=Cc1c(N)nc(-c2ccc(Cl)nc2)nc1C(=O)OC [Compound 68-156, 4-amino-2-(6-chloropyridin-3-yl)-5-ethenyl-6-methoxycarbonyl-pyrimidine]	0	100	40	40	10	10	0	100	50	90	0	0

Continued, compound first:

SMILES	melting point	pest or weed control at 1000 g/ha [1] [%]	pest or weed control at 1000 g/ha [2] [%]	pest or weed control at 1000 g/ha [3] [%]	pest or weed control at 1000 g/ha [4] [%]	pest or weed control at 1000 g/ha [5] [%]	pest or weed control at 1000 g/ha [6] [%]	pest or weed control at 1000 g/ha [7] [%]	pest or weed control at 1000 g/ha [8] [%]	pest or weed control at 1000 g/ha [9] [%]	pest or weed control at 1000 g/ha [10] [%]	pest or weed control at 1000 g/ha [11] [%]	pest or weed control at 1000 g/ha [12] [%]
Nc1nc(-c2ccccn2)nc(C(=O)O)c1Cl [Compound 1-149, 4-amino-5-chloro-2-pyridin-2-ylpyrimidine-6-carboxylic acid]	183 °C (dec.)	0	0	0	0	0	0	0	0	0	0	0	0
COC(=O)c1nc(-c2cnn(C)c2)nc(N)c1Cl [Compound 2-71, 4-amino-5-chloro-6-methoxycarbonyl-2-(1-methyl-1H-pyrazol-4-yl)-pyrimidine]	185 to 186 °C	0	0	0	0	0	0	0	0	30	0	0	0
O=C(O)c1nc(-c2ccccn2)nc(Cl)c1Cl [Compound 61-149, 4,5-dichloro-2-pyridin-2-ylpyrimidine-6-carboxylic acid]		0	0	0	0	0	0	0	0	0	40	0	0
